# pIC50: −log10 of the molar value.
# Molecular target: T1, USP25 (USP25-His6, Boston Biochem E-546) (Homo sapiens, UniProt Q9UHP3)
# T1 construct: His6; purchased Boston Biochem E-546
# T1 sequence (Q9UHP3 1-1055): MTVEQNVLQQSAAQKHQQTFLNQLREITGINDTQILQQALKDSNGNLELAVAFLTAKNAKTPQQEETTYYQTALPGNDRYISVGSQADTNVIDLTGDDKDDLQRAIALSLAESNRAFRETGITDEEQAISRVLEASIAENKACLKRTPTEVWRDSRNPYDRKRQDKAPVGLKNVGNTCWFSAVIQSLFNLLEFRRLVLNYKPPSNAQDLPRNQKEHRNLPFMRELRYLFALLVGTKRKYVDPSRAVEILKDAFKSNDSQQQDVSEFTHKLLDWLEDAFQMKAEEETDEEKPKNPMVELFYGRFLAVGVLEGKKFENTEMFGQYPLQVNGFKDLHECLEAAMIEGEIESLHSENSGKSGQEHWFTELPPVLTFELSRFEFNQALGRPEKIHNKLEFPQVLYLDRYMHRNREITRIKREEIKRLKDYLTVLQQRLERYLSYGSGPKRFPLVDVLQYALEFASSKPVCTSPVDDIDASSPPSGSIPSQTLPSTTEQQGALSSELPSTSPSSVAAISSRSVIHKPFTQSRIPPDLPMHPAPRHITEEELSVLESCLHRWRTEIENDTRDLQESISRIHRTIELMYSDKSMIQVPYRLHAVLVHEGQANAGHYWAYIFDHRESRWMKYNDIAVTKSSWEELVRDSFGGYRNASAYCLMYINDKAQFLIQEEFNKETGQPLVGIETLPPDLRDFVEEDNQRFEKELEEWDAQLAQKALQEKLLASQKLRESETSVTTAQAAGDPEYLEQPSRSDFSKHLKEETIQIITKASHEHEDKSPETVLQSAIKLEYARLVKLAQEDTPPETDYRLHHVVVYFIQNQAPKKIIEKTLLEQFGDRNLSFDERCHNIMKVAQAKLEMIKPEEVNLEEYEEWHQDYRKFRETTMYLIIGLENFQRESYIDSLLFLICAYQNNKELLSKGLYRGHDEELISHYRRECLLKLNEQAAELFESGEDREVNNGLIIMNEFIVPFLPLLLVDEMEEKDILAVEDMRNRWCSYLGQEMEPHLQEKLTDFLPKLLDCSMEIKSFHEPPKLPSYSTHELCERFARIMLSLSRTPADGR
# Experiment: Ubiquitin-Rhodamine 110 Assay for USP25 Activity, Example A-2
# Type: biochemical
# Details: Ubiquitin-Rhodamine 110 assay, Example A-2; read-out: USP25 A-2 IC50 range
# In short: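 75 pM USP25-His6 was preincubated 30 min with compound (10-point 3-fold series, 25 μM–1.3 nM) in pH 8.0 Tris buffer with BME, BGG and Triton X-100. Then 25 nM Ub-Rh110 (<<Km) was added for 45 min at room temperature, stopped with citric acid, fluorescence read at 485/535 nm, IC50 by 4-parameter fit.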
row,Structure (SMILES),pIC50
1,"Cc1ccc2c(N)c(C(=O)N[C@H]3COc4cc(N5C[C@@H](N)[C@H](C(F)F)C5)ccc4C3)sc2n1 [Example 295, 3-amino-N-[(3R)-7-[(3S,4R)-3-amino-4-(difluoromethyl)pyrrolidin-1-yl]-3,4-dihydro-2H-1-benzopyran-3-yl]-6-methylthieno[2,3-b]pyridine-2-carboxamide]",6.70 to 7.30
2,"COC[C@@H]1CN(c2ccc3c(n2)CC[C@H](NC(=O)c2sc4nc(C)cc(C)c4c2N)C3)C[C@@H]1N [Example 296, 3-amino-N-[(6S)-2-[(3R,4R)-3-amino-4-(methoxymethyl)pyrrolidin-1-yl]-5,6,7,8-tetrahydroquinolin-6-yl]-4,6-dimethylthieno[2,3-b]pyridine-2-carboxamide-]",< 5.70
3,"COC[C@H]1CN(c2ccc3c(n2)CC[C@H](NC(=O)c2sc4nc(C)cc(C)c4c2N)C3)C[C@H]1N [Example 297, 3-amino-N-[(6S)-2-[(3S,4S)-3-amino-4-(methoxymethyl)pyrrolidin-1-yl]-5,6,7,8-tetrahydroquinolin-6-yl]-4,6-dimethylthieno[2,3-b]pyridine-2-carboxamide]",5.70 to 6.70
4,"COC[C@@H]1CN(c2ccc3c(n2)CC[C@H](NC(=O)c2sc4nc(C)cnc4c2N)C3)C[C@@H]1N [Example 298, 7-amino-N-[(6S)-2-[(3R,4R)-3-amino-4-(methoxymethyl)pyrrolidin-1-yl]-5,6,7,8-tetrahydroquinolin-6-yl]-3-methylthieno[2,3-b]pyrazine-6-carboxamide]",< 5.70
5,"COC[C@H]1CN(c2ccc3c(n2)CC[C@H](NC(=O)c2sc4nc(C)cnc4c2N)C3)C[C@H]1N [Example 299, 7-amino-N-[(6S)-2-[(3S,4S)-3-amino-4-(methoxymethyl)pyrrolidin-1-yl]-5,6,7,8-tetrahydroquinolin-6-yl]-3-methylthieno[2,3-b]pyrazine-6-carboxamide]",5.70 to 6.70
6,"COC[C@@H]1CN(c2nc3c(cc2F)C[C@@H](NC(=O)c2sc4nc(C)ccc4c2N)CC3)C[C@@H]1N [Example 300, 3-amino-N-[(6S)-2-[(3R,4R)-3-amino-4-(methoxymethyl)pyrrolidin-1-yl]-3-fluoro-5,6,7,8-tetrahydroquinolin-6-yl]-6-methylthieno[2,3-b]pyridine-2-carboxamide]",< 5.70
7,"COC[C@H]1CN(c2nc3c(cc2F)C[C@@H](NC(=O)c2sc4nc(C)ccc4c2N)CC3)C[C@H]1N [Example 301, 3-amino-N-[(6S)-2-[(3S,4S)-3-amino-4-(methoxymethyl)pyrrolidin-1-yl]-3-fluoro-5,6,7,8-tetrahydroquinolin-6-yl]-6-methylthieno[2,3-b]pyridine-2-carboxamide]",< 5.70
8,"Cc1ccc2c(N)c(C(=O)N[C@H]3COc4cc(N5C[C@@H]6CCN[C@@H]6C5)ccc4C3)sc2n1 [Example 304, N-[(3R)-7-[(3aS,6aS)-octahydropyrrolo[3,4-b]pyrrol-5-yl]-3,4-dihydro-2H-1-benzopyran-3-yl]-3-amino-6-methylthieno[2,3-b]pyridine-2-carboxamide]",5.70 to 6.70
9,"Cc1ccc2c(N)c(C(=O)N[C@H]3COc4cc(N5C[C@H]6CCN[C@H]6C5)ccc4C3)sc2n1 [Example 305, N-[(3R)-7-[(3aR,6aR)-octahydropyrrolo[3,4-b]pyrrol-5-yl]-3,4-dihydro-2H-1-benzopyran-3-yl]-3-amino-6-methylthieno[2,3-b]pyridine-2-carboxamide]",6.70 to 7.30
10,"Cc1ccc2c(N)c(C(=O)N[C@H]3COc4cc(N5CCC6(CNC6)C5)ccc4C3)sc2n1 [Example 306, 3-amino-N-[(3R)-7-{2,6-diazaspiro[3.4]octan-6-yl}-3,4-dihydro-2H-1-benzopyran-3-yl]-6-methylthieno[2,3-b]pyridine-2-carboxamide]",5.70 to 6.70
11,"Cc1ccc2c(N)c(C(=O)N[C@H]3COc4cc(N5C[C@H](N)[C@]6(CCCO6)C5)ccc4C3)sc2n1 [Example 307, 3-amino-N-[(3R)-7-[(5S,9S)-9-amino-1-oxa-7-azaspiro[4.4]nonan-7-yl]-3,4-dihydro-2H-1-benzopyran-3-yl]-6-methylthieno[2,3-b]pyridine-2-carboxamide]",5.70 to 6.70
12,"Cc1ccc2c(N)c(C(=O)N[C@H]3COc4cc(N5C[C@@H](N)[C@@]6(CCCO6)C5)ccc4C3)sc2n1 [Example 308, 3-amino-N-[(3R)-7-[(5R,9R)-9-amino-1-oxa-7-azaspiro[4.4]nonan-7-yl]-3,4-dihydro-2H-1-benzopyran-3-yl]-6-methylthieno[2,3-b]pyridine-2-carboxamide]",5.70 to 6.70
13,"Cc1ccc2c(N)c(C(=O)N[C@H]3COc4cc(N5C[C@@H](N)[C@]6(CCCO6)C5)ccc4C3)sc2n1 [Example 309, 3-amino-N-[(3R)-7-[(5S,9R)-9-amino-1-oxa-7-azaspiro[4.4]nonan-7-yl]-3,4-dihydro-2H-1-benzopyran-3-yl]-6-methylthieno[2,3-b]pyridine-2-carboxamide]",6.70 to 7.30
14,"Cc1ccc2c(N)c(C(=O)N[C@H]3COc4cc(N5C[C@H](N)[C@@]6(CCCO6)C5)ccc4C3)sc2n1 [Example 310, 3-amino-N-[(3R)-7-[(5R,9S)-9-amino-1-oxa-7-azaspiro[4.4]nonan-7-yl]-3,4-dihydro-2H-1-benzopyran-3-yl]-6-methylthieno[2,3-b]pyridine-2-carboxamide]",5.70 to 6.70
15,"CN[C@H]1CN(c2ccc3c(n2)CC[C@H](NC(=O)c2sc4nc(C)ccc4c2N)C3)C[C@@H]1OC [Example 311, 3-amino-N-[(6S)-2-[(3S,4S)-3-methoxy-4-(methylamino)pyrrolidin-1-yl]-5,6,7,8-tetrahydroquinolin-6-yl]-6-methylthieno[2,3-b]pyridine-2-carboxamide]",< 5.70
16,"CN[C@H]1CN(c2ccc3c(n2)CC[C@H](NC(=O)c2sc4nc(C)cc(C)c4c2N)C3)C[C@@H]1OC [Example 312, 3-amino-N-[(6S)-2-[(3S,4S)-3-methoxy-4-(methylamino)pyrrolidin-1-yl]-5,6,7,8-tetrahydroquinolin-6-yl]-4,6-dimethylthieno[2,3-b]pyridine-2-carboxamide]",< 5.70
17,"CCOC[C@@H]1CN(c2ccc3c(c2)OC[C@H](NC(=O)c2sc4nc(C)ccc4c2N)C3)C[C@@H]1N [Example 313, 3-amino-N-[(3R)-7-[(3R,4R)-3-amino-4-(ethoxymethyl)pyrrolidin-1-yl]-3,4-dihydro-2H-1-benzopyran-3-yl]-6-methylthieno[2,3-b]pyridine-2-carboxamide]",5.70 to 6.70
18,"CCOC[C@H]1CN(c2ccc3c(c2)OC[C@H](NC(=O)c2sc4nc(C)ccc4c2N)C3)C[C@H]1N [Example 314, 3-amino-N-[(3R)-7-[(3S,4S)-3-amino-4-(ethoxymethyl)pyrrolidin-1-yl]-3,4-dihydro-2H-1-benzopyran-3-yl]-6-methylthieno[2,3-b]pyridine-2-carboxamide]",6.70 to 7.30
19,"CO[C@H]1CCN(c2ccc3c(c2)OC[C@H](NC(=O)c2sc4nc(C)cc(C)c4c2N)C3)C[C@@H]1N [Example 317, 3-amino-N-[(3R)-7-[(3S,4S)-3-amino-4-methoxypiperidin-1-yl]-3,4-dihydro-2H-1-benzopyran-3-yl]-4,6-dimethylthieno[2,3-b]pyridine-2-carboxamide]",5.70 to 6.70
20,"CO[C@@H]1CCN(c2ccc3c(c2)OC[C@H](NC(=O)c2sc4nc(C)cc(C)c4c2N)C3)C[C@H]1N [Example 318, 3-amino-N-[(3R)-7-[(3R,4R)-3-amino-4-methoxypiperidin-1-yl]-3,4-dihydro-2H-1-benzopyran-3-yl]-4,6-dimethylthieno[2,3-b]pyridine-2-carboxamide]",5.70 to 6.70
21,"Cc1cnc2c(N)c(C(=O)N[C@H]3CCc4cc(N5C[C@H](OC(C)C)[C@@H](N)C5)ccc4C3)sc2n1 [Example 319, 7-amino-N-[(2S)-6-[(3S,4S)-3-amino-4-(propan-2-yloxy)pyrrolidin-1-yl]-1,2,3,4-tetrahydronaphthalen-2-yl]-3-methylthieno[2,3-b]pyrazine-6-carboxamide]",< 5.70
22,Cc1ccc2c(N)c(C(=O)N[C@H]3CCc4nc(N5C[C@H](OC(C)C)[C@@H](N)C5)ccc4C3)sc2n1 [Example 320],< 5.70
23,"Cc1ccc2c(N)c(C(=O)N[C@H]3CCc4nc(N5C[C@H](N)[C@H](OC(C)C)C5)ccc4C3)sc2n1 [Example 321, 3-amino-N-[(6S)-2-[(3S,4R)-3-amino-4-(propan-2-yloxy)pyrrolidin-1-yl]-5,6,7,8-tetrahydroquinolin-6-yl]-6-methylthieno[2,3-b]pyridine-2-carboxamide]",< 5.70
